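Values below derive from 48-hour exposures of cells grown in 96-well plates, with endpoints linearly interpolated between the two concentrations bracketing the appropriate inhibition level. GI50 is the concentration that inhibits growth by half. Definition used: TGI = concentration required for complete inhibition of growth.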
What was measured:
Assay in all cases: DTP human tumour cell line panel, 48 h; in the data active = GI50 below about 0.43 µM; inactive = the rest
[1] = test system: 786-0 renal
[2] = test system: A498 renal
[3] = test system: A549 NSCLC
[4] = test system: ACHN renal
[5] = test system: BT-549 breast
[6] = test system: CAKI-1 renal
[7] = test system: CCRF-CEM leukemia
[8] = test system: COLO 205 colon
[9] = test system: DU-145 prostate
[10] = test system: EKVX NSCLC
[11] = test system: HCC-2998 colon
[12] = test system: HCT-116 colon
[13] = test system: HCT-15 colon
[14] = test system: HL-60(TB) leukemia
[15] = test system: HOP-62 NSCLC
[16] = test system: HOP-92 NSCLC
[17] = test system: HS 578T breast
[18] = test system: HT29 colon
[19] = test system: IGROV1 ovarian
[20] = test system: K-562 leukemia
[21] = test system: KM12 colon
[22] = test system: LOX IMVI melanoma
[23] = test system: M14 melanoma
[24] = test system: MALME-3M melanoma
[25] = test system: MCF7 breast
[26] = test system: MDA-MB-231 breast
[27] = test system: MDA-MB-435
[28] = test system: MOLT-4 leukemia
[29] = test system: NCI-H226 lung
[30] = test system: NCI-H23 lung
[31] = test system: NCI-H460 lung
[32] = test system: NCI-H522 lung
[33] = test system: NCI/ADR-RES ovarian
[34] = test system: OVCAR-3 ovarian
[35] = test system: OVCAR-4 ovarian
[36] = test system: OVCAR-5 ovarian
[37] = test system: OVCAR-8 ovarian
[38] = test system: PC-3 prostate
[39] = test system: RPMI-8226 leukemia
[40] = test system: SF-268 CNS
[41] = test system: SF-295 CNS
[42] = test system: SF-539 CNS
[43] = test system: SK-MEL-2 melanoma
[44] = test system: SK-MEL-28 melanoma
[45] = test system: SK-MEL-5 melanoma
[46] = test system: SK-OV-3 ovarian
[47] = test system: SN12C renal
[48] = test system: SNB-19 CNS
[49] = test system: SNB-75 CNS
[50] = test system: SR leukemia
[51] = test system: SW-620 colon
[52] = test system: T-47D breast
[53] = test system: TK-10 renal
[54] = test system: U251 CNS
[55] = test system: UACC-257 melanoma
[56] = test system: UACC-62 melanoma
[57] = test system: UO-31 renal

Cc1cc2c(cc1Cl)N1C(=O)NS(=O)(=O)N=C1NS2(=O)=O
> 100 µM: TGI [1] | TGI [2] | TGI [3] | TGI [4] | TGI [5] | TGI [6] | TGI [7] | TGI [8] | TGI [9] | TGI [10] | TGI [11] | TGI [12] | TGI [13] | TGI [14] | TGI [15] | TGI [16] | TGI [17] | TGI [18] | TGI [19] | TGI [20] | TGI [21] | TGI [22] | TGI [23] | TGI [24] | TGI [25] | TGI [26] | TGI [27] | TGI [28] | TGI [29] | TGI [30] | TGI [31] | TGI [32] | TGI [33] | TGI [34] | TGI [35] | TGI [36] | TGI [37] | TGI [38] | TGI [39] | TGI [40] | TGI [41] | TGI [42] | TGI [43] | TGI [44] | TGI [45] | TGI [46] | TGI [47] | TGI [48] | TGI [49] | TGI [50] | TGI [51] | TGI [52] | TGI [53] | TGI [54] | TGI [55] | TGI [56] | TGI [57]
inactive: GI50 [1] > 100 µM | GI50 [2] > 100 µM | GI50 [3] > 100 µM | GI50 [4] > 100 µM | GI50 [5] > 100 µM | GI50 [6] > 100 µM | GI50 [7] > 100 µM | GI50 [8] > 100 µM | GI50 [9] > 100 µM | GI50 [10] > 100 µM | GI50 [11] > 100 µM | GI50 [12] > 100 µM | GI50 [13] > 100 µM | GI50 [14] > 100 µM | GI50 [15] > 100 µM | GI50 [16] > 100 µM | GI50 [17] > 100 µM | GI50 [18] > 100 µM | GI50 [19] > 100 µM | GI50 [20] > 100 µM | GI50 [21] > 100 µM | GI50 [22] > 100 µM | GI50 [23] > 100 µM | GI50 [24] > 100 µM | GI50 [25] > 100 µM | GI50 [26] > 100 µM | GI50 [27] > 100 µM | GI50 [28] > 100 µM | GI50 [29] > 100 µM | GI50 [30] > 100 µM | GI50 [31] > 100 µM | GI50 [32] > 100 µM | GI50 [33] > 100 µM | GI50 [34] > 100 µM | GI50 [35] > 100 µM | GI50 [36] > 100 µM | GI50 [37] > 100 µM | GI50 [38] > 100 µM | GI50 [39] > 100 µM | GI50 [40] > 100 µM | GI50 [41] > 100 µM | GI50 [42] > 100 µM | GI50 [43] > 100 µM | GI50 [44] > 100 µM | GI50 [45] > 100 µM | GI50 [46] > 100 µM | GI50 [47] > 100 µM | GI50 [48] > 100 µM | GI50 [49] > 100 µM | GI50 [50] > 100 µM | GI50 [51] > 100 µM | GI50 [52] > 100 µM | GI50 [53] > 100 µM | GI50 [54] > 100 µM | GI50 [55] > 100 µM | GI50 [56] > 100 µM | GI50 [57] > 100 µM
